{
  "source": "patent US20250057791A1",
  "about": "“PROTECTION AGAINST ARTHROPOD PARASITES WITH PURINERGIC RECEPTOR (OPR) ANTAGONISTS” (priority 2021, published 2025)",
  "key": {"[1]": {"test_system": "A. stephensi", "assay": "Membrane feeding assay, A. stephensi", "type": "in vivo, Anopheles stephensi", "details": "for effect on feeding on solution containing ATP, in words: doses as in Table 8", "description": "Experiments with A. gambiae and A. stephensi were made in a climate chamber at 28° C. and 80% RH during the last 6 hours of scotophase. As a sugar meal can interfere with the blood meal by reducing the number of females that feed, the sucrose solution supplied in rearing cages to mosquitoes employed for feeding experiments was reduced to 5%. […] The 5% sucrose solution was presented to mosquitoes from emergence on four 1 cm diam. cotton dental rolls (Hartmann A G, Neuhausen, Switzerland) inserted in 10 ml upturned glass vials placed in holes at each corner of the rearing cage ceiling. Cotton rolls were turned daily in vials and renewed every two days. Mosquitoes were not fed blood and were deprived of sucrose 17 to 20 hours before experiments. Thirty min before a feeding experiment, between 10-25, 6-day-old females that responded to activation by human breath were removed with a mouth aspirator from the rearing cage wall and placed in polystyrol cylinders with the floor cut out (10 cm dm×15 cm high; Semadeni, Ostermundigen, Switzerland) that served as feeding cages. Each cage was covered with mosquito netting at one end and a soft polyurethane lid at the other.\nMosquitoes were fed for 30 min using a feeding system (Hemotek®, Hemotek Ltd, Blackburn, UK) consisting of 3.5 ml stainless steel reservoirs 37 mm in diameter covered with a 60-90 μm thick silicone-impregnated membrane (Kröber and Guerin, 2007 in “Feeding assays for hard ticks”, Trends in parasitology 23, 445-449; doi 10.1016/j.pt.2007.07.010). Feeding reservoirs reached a temperature of 37° C. within 10 min and were placed on the netting of feeding cages. Mosquitoes were activated using a 200 ms pulse of pure CO2 (volume 6.25 ml) from a pressurised cylinder (Carbagas, Switzerland) using a solenoid valve that caused the CO2 level in the feeding cage to rise to at least 1,500 ppm. Between 3 and 4 sets of 10 feeding cages held in a custom-built Ertacetal® POM frame were tested per day, depending of the number of female mosquitoes available from the colony.\nAll compounds were tested in a mosquito feeding solution (FS) consisting of 25 mM dextrose, 25 mM NaCl buffered with 8.93 mM NaHCO3 adjusted to pH 7.4. Feeding responses of A. gambiae and A. stephensi to ATP as a function of dose were tested with between 7 to 10 feeding cages per dose. Each feeding experiment with an antagonist systematically included a treatment containing the FS as negative control along with a treatment containing the FS […] These positive and negative controls permitted to monitor any effect of experimental day on feeding responses as a function of dose for antagonists that were recorded over several days. […] Four to 10 cages each with 10 to 29 mosquitoes were tested per antagonist dose. […] The number of feeding cages used to test other compounds and their mixtures as feeding stimulants or as feeding inhibitors is listed on Table 6. The percentage of fed mosquitoes was estimated by visual inspection of abdominal distention that is indicative of engorgement.\nPairwise comparisons of A. gambiae electrophysiological (EP) responses to ATP and adenosine alone and combined with a given dose of PR antagonist, EP responses to ATP alone and combined with a given dose of a metal modulator, and EP responses to ATP prior to and after exposure of a sensillum to a given dose of a PR antagonist were made with a one-tailed Wilcoxon signed-rank test for data showing a non-normal distribution, with a paired Student's t-test for normally distributed data showing homogeneous variance and with a Welch's t-test for normally distributed data showing non-homogeneous variance. […]"}, "[2]": {"test_system": "Ornithodorus moubata", "assay": "Silicone membrane feeding of N3, N4 nymphs, Ornithodorus moubata", "type": "in vivo", "details": "for effect on feeding, compound in solution containing ATP, in words: doses as in Table 9", "description": "O. moubata nymphs were fed for 25 min through a membrane (50-75 μm thick) as for hard ticks in glass feeding unit on TFS containing 1000 μM ATP as positive control in each feeding experiment. PR antagonists were added to the TFS as for hard ticks. One compound, TMP was applied onto the membrane in aqueous solution (8 μg TMP in 70 μl) in small drops using a micropipette. Individual nymphs were marked on the dorsum with nail varnish in distinguishable colours and weighed before and after the experiment.\n(§1) Uptake of TFS containing PR antagonists, converted to mg/h for hard ticks and weight gains in mg/25 min for soft ticks, was compared to TFS uptake in the corresponding positive controls. […] For tsetse and horn flies the percentage flies that fed per antagonist treatment served as the criterion for inhibition of feeding. As horn fly sexes emerged within 24 h, both sexes were assumed to show the same degree of appetence. In tsetse, males emerged first so a gender-related appetence could not be excluded. No sex-related feeding differences in feeding were found for testse (GLM, P>0.05) so data for the sexes were pooled. Comparisons of percentage fed flies were made using a Bayesian GLM—the most appropriate model considering the zero-inflated distributions shown by the data sets. […] P-values were corrected using Holm's FWEC in multiple comparisons of data for each tick and fly species."}, "[3]": {"test_system": "Glossina pallidipes", "assay": "Membrane feeding assay, tsetse fly Glossina pallidipes", "type": "in vivo", "details": "for effect on feeding, compound in solution containing ATP, in words: doses as in Table 10", "description": "(§2) Flies of both species were transferred 30 min before feeding experiments to feeding cages as used for mosquitoes at 24° C., 80% RH in an environmental cabinet. Teneral tsetse were fed at 2 to 4 days old during the photophase with between 7 and 13 flies per feeding cage, covered with a black cloth. Horn flies were tested at 1 and 2 days old in the photophase with between 6 and 21 flies per cage. Both fly species were fed using small Hemotek feeding reservoirs (29 mm diameter, 1 ml) equipped with a membrane as for mosquitoes. Horn flies were fed for 15 min with feeding reservoirs placed on the cage. For tsetse, cages were closed with black mosquito netting at the bottom to allow flies to feed through the membrane placed under the cage. Feeding time (1.5 to 6 min) for tsetse was adjusted as a function of age to achieve at least 30% feeding on the positive control included in each feeding experiment. The positive control for both fly species contained 150 mM NaCl, 8.9 mM NaHCO3 with 100 μM ATP added, hereafter termed fly feeding solution (FFS). The pH of the FFS was adjusted as for ticks. The effect of TMP on feeding by G. pallidipes was also tested at 16 μg TMP/cm^2 dissolved in 140 μl hexane and applied homogeneously to the membrane surface using a micropipette. Hexane was used to treat the membrane with TMP to avoid the test compound being dispersed by fly wing-fanning. Flies of both species were activated just prior to feeding on a treatment by exhalation into the cage. Tsetse that had fed were identified with swollen abdomens and counted at the end of a feeding experiment. Since it was difficult to ascertain by eye whether a horn fly had fed on a treatment, 10 μl/ml of blue food colorant (No. 4866908, Trawosa AG, St. Gallen, Switzerland) was added. This facilitated the detection of ingested liquid when the abdomen of flies, killed by freezing, was squashed onto filter paper. Only experiments in which the feeding rate by flies was >30% on the positive control were included in analyses.\nas §1"}, "[4]": {"test_system": "Haematobia irritans", "assay": "Membrane feeding assay, horn fly Haematobia irritans", "type": "in vivo", "details": "for effect on feeding on solutions containing ATP, in words: doses as in Table 10", "description": "as §2, §1"}, "[5]": {"details": "TFS + 100 μM, N3, N4, silicone membrane"}},
  "data": [
    {"smiles": "O=C(O)c1cc(C(=O)O)c(C(=O)N(Cc2cccc(Oc3ccccc3)c2)[C@H]2CCCc3ccccc32)cc1C(=O)O", "note": "[A-317491, 5-[(3-phenoxyphenyl)methyl-[(1S)-1,2,3,4-tetrahydronaphthalen-1-yl]carbamoyl]benzene-1,2,4-tricarboxylic acid]", "values": [
      {"measurement": "% Fed females (mean ± s.e.m.)", "setting": "[1]; 0.08 μM, feeding solution with 160 μM ATP", "value": "29.68 ± 7.14", "unit": "%"},
      {"measurement": "inhibition at 0.08 µM", "setting": "[1]; Anopheles stephensi, 0.08 μM, Abbott's formula", "value": 59.3, "unit": "%"},
      {"measurement": "effect on feeding on solution containing ATP, in words", "setting": "[1]", "value": "inhibited feeding"},
      {"measurement": "weight gain, Median (mg)", "setting": "[2]; TFS + 1 μM, N3, N4, silicone membrane", "value": 0.1, "unit": "mg/25 min"},
      {"measurement": "weight gain, Median (mg)", "setting": "[2]; [5]", "value": 0, "unit": "mg/25 min"},
      {"measurement": "effect on feeding, compound in solution containing ATP, in words", "setting": "[2]", "value": "inhibited feeding"},
      {"measurement": "% Fed, Median", "setting": "[3]; FFS + 1 μM", "value": 22.5, "unit": "%"},
      {"measurement": "effect on feeding, compound in solution containing ATP, in words", "setting": "[3]", "value": "inhibited feeding"},
      {"measurement": "% Fed, Median", "setting": "[4]; FFS + 10 μM", "value": 58.3, "unit": "%"},
      {"measurement": "% Fed, Median", "setting": "[4]; FFS + 100 μM", "value": 41.5, "unit": "%"},
      {"measurement": "effect on feeding on solutions containing ATP, in words", "setting": "[4]", "value": "inhibited feeding"}
    ]},
    {"smiles": "Nc1ncnc2c1ncn2[C@@H]1O[C@H](COP(=O)(O)OP(=O)(O)OP(=O)(O)O)[C@@H](O)[C@H]1O", "note": "[ATP, Adenosine 5′-triphosphate]", "values": [
      {"measurement": "% Fed females (mean ± s.e.m.)", "setting": "[1]; ATP 160 μM, positive control", "value": "72.96 ± 5.9", "unit": "%"},
      {"measurement": "ED95, feeding stimulant", "setting": "[1]; feeding as a function of dose", "value": 160, "unit": "µM"}
    ]},
    {"smiles": "Cc1ccc(C(=O)Nc2ccc(S(=O)(=O)O)c3cc(S(=O)(=O)O)cc(S(=O)(=O)O)c23)cc1NC(=O)c1cccc(NC(=O)Nc2cccc(C(=O)Nc3cc(C(=O)Nc4ccc(S(=O)(=O)O)c5cc(S(=O)(=O)O)cc(S(=O)(=O)O)c45)ccc3C)c2)c1", "note": "[Suramin]", "values": [
      {"measurement": "% Fed females (mean ± s.e.m.)", "setting": "[1]; 80 μM, feeding solution with 160 μM ATP", "value": "30.04 ± 7.75", "unit": "%"},
      {"measurement": "inhibition at 80 µM", "setting": "[1]; Anopheles stephensi, 80 μM, Abbott's formula", "value": 58.8, "unit": "%"},
      {"measurement": "weight gain, Median (mg)", "setting": "[2]; TFS + 500 μM, N3, N4, silicone membrane", "value": 0, "unit": "mg/25 min"},
      {"measurement": "% Fed, Median", "setting": "[3]; FFS + 50 μM", "value": 45.5, "unit": "%"},
      {"measurement": "% Fed, Median", "setting": "[4]; FFS + 50 μM", "value": 61.5, "unit": "%"},
      {"measurement": "% Fed, Median", "setting": "[4]; FFS + 100 μM", "value": 46.2, "unit": "%"}
    ]},
    {"smiles": "Cc1nc(C)c(C)nc1C", "note": "[TMP, 2,3,5,6-tetramethylpyrazine]", "values": [
      {"measurement": "% Fed females (mean ± s.e.m.)", "setting": "[1]; 0.8 μM, feeding solution with 160 μM ATP", "value": "26.67 ± 2.98", "unit": "%"},
      {"measurement": "inhibition at 0.8 µM", "setting": "[1]; Anopheles stephensi, 0.8 μM, Abbott's formula", "value": 63.5, "unit": "%"},
      {"measurement": "effect on feeding on solution containing ATP, in words", "setting": "[1]", "value": "inhibited feeding"},
      {"measurement": "weight gain, Median (mg)", "setting": "[2]; 8 μg/cm^2 on membrane over TFS, N3, N4", "value": 0, "unit": "mg/25 min"},
      {"measurement": "weight gain, Median (mg)", "setting": "[2]; [5]", "value": 0.1, "unit": "mg/25 min"},
      {"measurement": "effect on feeding, compound applied onto the feeding membrane, in words", "setting": "[2]; dose as in Table 9", "value": "significantly inhibited feeding"},
      {"measurement": "effect on feeding, compound in solution containing ATP, in words", "setting": "[2]", "value": "failed to inhibit feeding"},
      {"measurement": "% Fed, Median", "setting": "[3]; FFS + 16 μg/cm^2 on membrane", "value": 40, "unit": "%"},
      {"measurement": "% Fed, Median", "setting": "[3]; FFS + 150 μM", "value": 66.7, "unit": "%"},
      {"measurement": "effect on feeding, compound applied onto the feeding membrane, in words", "setting": "[3]; dose as in Table 10", "value": "significantly inhibited feeding"},
      {"measurement": "effect on feeding, compound in solution containing ATP, in words", "setting": "[3]", "value": "failed to inhibit feeding"},
      {"measurement": "% Fed, Median", "setting": "[4]; FFS + 50 μM", "value": 50, "unit": "%"},
      {"measurement": "% Fed, Median", "setting": "[4]; FFS + 100 μM", "value": 37.5, "unit": "%"},
      {"measurement": "% Fed, Median", "setting": "[4]; FFS + 500 μM", "value": 0, "unit": "%"},
      {"measurement": "effect on feeding on solutions containing ATP, in words", "setting": "[4]", "value": "inhibited feeding"}
    ]}
  ]
}
